According to ChEMBL document CHEMBL5365399, “Design, synthesis and evaluation of new pyrimidine derivatives as EGFRC797S tyrosine kinase inhibitors” (Bioorg Med Chem Lett, 2023):
The source made the active and inactive calls. No cut-off for these calls is given here.

Tests used:
[1] = (§1) Antiproliferative activity against mouse KC-0116 cells by MTT assay; assay type: functional, cell-based
[2] = Antiproliferative activity against mouse Ba/F3 EGFR-T790M/C797S/L858R cells; assay type: functional, cell-based
[3] = Antiproliferative activity against mouse Ba/F3 EGFR-Del19/T790M/C797S cells; assay type: functional, cell-based
[4] = Antiproliferative activity against mouse KC-0122 cells by MTT assay; assay type: functional, cell-based
NCI-H1975 = assay: Antiproliferative activity against human NCI-H1975 cells by MTT assay; assay type: functional, cell-based
HCC827 = assay: Antiproliferative activity against human HCC827 cells by MTT assay; assay type: functional, cell-based
A-431 = assay: Antiproliferative activity against human A-431 cells by MTT assay; assay type: functional, cell-based
[5] = Induction of apoptosis in mouse KC-0116 cells assessed as viable cells at 300 nM measured after 36 hrs by Annexin V/propidium iodide staining based flow cytometry (reference value: 90.66%); assay type: functional; conditions: read-out: Activity
[6] = Induction of apoptosis in mouse KC-0116 cells assessed as early apoptotic cells at 300 nM measured after 36 hrs by Annexin V/propidium iodide staining based flow cytometry (reference value: 6.85%); assay type: functional
[7] = Induction of apoptosis in mouse KC-0116 cells assessed as late apoptotic cells at 300 nM measured after 36 hrs by Annexin V/propidium iodide staining based flow cytometry (reference value: 2.47%); assay type: functional
[8] = Induction of apoptosis in mouse KC-0116 cells assessed as necrotic cells at 300 nM measured after 36 hrs by Annexin V/propidium iodide staining based flow cytometry (reference value: 0.03%); assay type: functional
KC-0116 [9] = assay: as §1; assay type: functional, cell-based
KC-0116 [10] = assay: Induction of apoptosis in mouse KC-0116 cells measured after 36 hrs by Annexin V/propidium iodide staining based flow cytometry; assay type: functional, cell-based; conditions: dose 0.1-3 µM
KC-0116 [11] = assay: Inhibition of EGFR-del19/T790M/C797S in mouse KC-0116 cells assessed as reduction in EGFR phosphorylation measured after 8 hrs by Western blot analysis; assay type: cell-based; conditions: dose 0.3-3 µM
KC-0116 [12] = assay: Inhibition of EGFR-del19/T790M/C797S in mouse KC-0116 cells assessed as reduction in AKT phosphorylation measured after 8 hrs by Western blot analysis; assay type: cell-based; conditions: dose 0.3-3 µM
[13] = Induction of apoptosis in mouse KC-0116 cells assessed as viable cells at 100 nM measured after 36 hrs by Annexin V/propidium iodide staining based flow cytometry (reference value: 90.66%); assay type: functional; conditions: read-out: Activity
[14] = Induction of apoptosis in mouse KC-0116 cells assessed as early apoptotic cells at 100 nM measured after 36 hrs by Annexin V/propidium iodide staining based flow cytometry (reference value: 6.85%); assay type: functional
[15] = Induction of apoptosis in mouse KC-0116 cells assessed as late apoptotic cells at 100 nM measured after 36 hrs by Annexin V/propidium iodide staining based flow cytometry (reference value: 2.47%); assay type: functional
[16] = Induction of apoptosis in mouse KC-0116 cells assessed as necrotic cells at 100 nM measured after 36 hrs by Annexin V/propidium iodide staining based flow cytometry (reference value: 0.03%); assay type: functional
KC-0116 [17] = assay: Cell cycle arrest in mouse KC-0116 cells assessed as increase in cell population at G2/M-phase at 0.1 to 0.3 uM measured after 48 hrs by flow cytometry; assay type: functional, cell-based; conditions: dose 0.1-0.3 µM

## CN(C)C1CCN(c2ccc(Nc3ncc(Cl)c(N[C@H]4CCN(S(=O)(=O)C5CC5)C4)n3)cc2)CC1
[1]
  IC50: > 3300 nM

## CN1CCN(c2ccc(Nc3ncc(Br)c(N[C@@H]4CCN(S(=O)(=O)C5CC5)C4)n3)cc2)CC1
[1]
  IC50: 3010 nM

## CN1CCN(c2ccc(Nc3ncc(Br)c(NCc4ccccn4)n3)cc2)CC1
[1]
  IC50: 1310 nM

## CN1CCN(c2ccc(Nc3ncc4c5ccccc5n(-c5cccc(NC(=O)CO)c5)c4n3)cc2)CC1
[1]
  IC50: > 3300 nM

## CN1CCN(c2ccc(Nc3ncc4c5ccc(OC(F)(F)F)cc5n(-c5cccc(NC(=O)CN)c5)c4n3)cc2)CC1
[1]
  IC50: > 3300 nM

## CN1CCN(c2ccc(Nc3ncc(-c4ccccc4)c(Nc4cccc(NC(=O)CN)c4)n3)cc2)CC1
[1]
  IC50: > 3300 nM

## CN1CCN(c2ccc(Nc3ncc(Br)c(NC4CCN(S(C)(=O)=O)CC4)n3)cc2)CC1
[1]
  IC50: 940 nM

## CN1CCN(c2ccc(Nc3ncc(-c4ccccc4)c(N[C@H]4CCN(S(=O)(=O)C5CC5)C4)n3)cc2)CC1
[1]
  IC50: > 3300 nM

## CN(C)C1CCN(c2ccc(Nc3ncc(Cl)c(N[C@H]4CCCN(C(=O)CO)C4)n3)cc2)CC1
[1]
  IC50: 1660 nM

## CN1CCN(c2ccc(Nc3ncc(Br)c(Nc4cccc(NC(=O)CN)c4)n3)cc2)CC1
[1]
  IC50: 440 nM

## CN(C)C1CCN(c2ccc(Nc3ncc(Cl)c(NC4CCN(C(=O)CO)CC4)n3)cc2)CC1
[1]
  IC50: 2460 nM

## CN1CCN(c2ccc(Nc3ncc4c5ccccc5n([C@H]5CCN(S(=O)(=O)C6CC6)C5)c4n3)cc2)CC1
[1]
  IC50: > 3300 nM

## COc1cc(N2CCC(N3CCN(C)CC3)CC2)c(C)cc1Nc1ncc(Br)c(Nc2ccc3nccnc3c2P(C)(C)=O)n1
[2]
  IC50: 0.21 nM
[3]
  IC50: 0.16 nM

## CN1CCN(c2ccc(Nc3ncc(Br)c(N[C@H]4CCN(S(=O)(=O)C5CC5)C4)n3)cc2)CC1
[1]
  IC50: 1130 nM

## CN1CCN(c2ccc(Nc3ncc4c5ccccc5n(-c5cccc(NS(C)(=O)=O)c5)c4n3)cc2)CC1
[1]
  IC50: > 3300 nM

## CN(C)C1CCN(c2ccc(Nc3ncc(Cl)c(N[C@@H]4CCCN(C(=O)CO)C4)n3)cc2)CC1
[1]
  IC50: > 3300 nM

## CN1CCN(c2ccc(Nc3ncc(Br)c(N[C@H]4CCCN(S(=O)(=O)C5CC5)C4)n3)cc2)CC1
[1]
  IC50: 2000 nM

## COc1cc(N2CCC(N3CCN(C)CC3)CC2)ccc1Nc1ncc(Cl)c(Nc2ccccc2P(C)(C)=O)n1 [BRIGATINIB]
[2]
  IC50: 5.57 nM
[1]
  IC50: 360 nM
[4]
  IC50: 440 nM
NCI-H1975
  IC50: 830 nM
HCC827
  IC50: 13 nM
A-431
  IC50: 500 nM
[5]
  viability at 0.3 µM: 90.8%
[6]
  Activity: 7.2%
[7]
  Activity: 1.94%
[8]
  Activity: 0.02%

## CN1CCN(c2ccc(Nc3ncc(Br)c(N[C@@H]4CCCN(S(=O)(=O)C5CC5)C4)n3)cc2)CC1
[1]
  IC50: 200 nM
KC-0116 [9]
  Activity: Dose-Dependent Effect
[4]
  IC50: 210 nM
KC-0116 [10]
  Activity: Dose-Dependent Effect
NCI-H1975
  IC50: > 3300 nM
HCC827
  IC50: > 3300 nM
A-431
  IC50: 620 nM
KC-0116 [11]
  inhibition: Dose-Dependent Effect
KC-0116 [12]
  inhibition: Dose-Dependent Effect
[13]
  viability at 0.1 µM: 83.9%
[14]
  Activity: 11.51%
[15]
  Activity: 4.61%
[16]
  Activity: 0.01%
[5]
  viability at 0.3 µM: 80.2%
[6]
  Activity: 14.6%
[7]
  Activity: 5.19%
[8]
  Activity: 0%
KC-0116 [17]
  Activity: Active

## CN1CCN(c2ccc(Nc3ncc4c5ccccc5n(-c5ccc(NC(=O)CN)cc5)c4n3)cc2)CC1
[1]
  IC50: > 3300 nM

## CN1CCN(c2ccc(Nc3ncc(Br)c(NC4CCOCC4)n3)cc2)CC1
[1]
  IC50: 710 nM

## CN(C)C1CCN(c2ccc(Nc3ncc(Cl)c(N[C@H]4CCN(C(=O)CO)C4)n3)cc2)CC1
[1]
  IC50: > 3300 nM

## CN(C)C1CCN(c2ccc(Nc3ncc(Cl)c(N[C@@H]4CCN(S(=O)(=O)C5CC5)C4)n3)cc2)CC1
[1]
  IC50: 460 nM

## CC(=O)N1CCC(Nc2nc(Nc3ccc(N4CCN(C)CC4)cc3)ncc2Br)CC1
[1]
  IC50: 950 nM

## C=CC(=O)Nc1cc(Nc2nccc(-c3cn(C)c4ccccc34)n2)c(OC)cc1N(C)CCN(C)C [OSIMERTINIB]
[1]
  IC50: 1430 nM
[4]
  IC50: 1530 nM
NCI-H1975
  IC50: […]
HCC827
  IC50: 1 nM

## CN1CCN(c2ccc(Nc3ncc4c5ccccc5n(-c5cccc(NCCO)c5)c4n3)cc2)CC1
[1]
  IC50: > 3300 nM

## CN1CCN(c2ccc(Nc3ncc(C(F)(F)F)c(N[C@H]4CC[C@H](O)CC4)n3)cc2)CC1
[1]
  IC50: > 3300 nM

## CN(C)C1CCN(c2ccc(Nc3ncc(Br)c(N[C@H]4CC[C@H](O)CC4)n3)cc2)CC1
[1]
  IC50: 480 nM

## CN1CCN(c2ccc(Nc3ncc(Cl)c(N[C@H]4CC[C@H](O)CC4)n3)cc2)CC1
[1]
  IC50: 310 nM

## CN1CCN(c2ccc(Nc3ncc(Br)c(N[C@H]4CC[C@H](O)CC4)n3)cc2)CC1
[1]
  IC50: 240 nM
[4]
  IC50: 250 nM
NCI-H1975
  IC50: 580 nM
HCC827
  IC50: 650 nM
A-431
  IC50: > 3300 nM

## CN1CCN(c2ccc(Nc3ncc(Br)c(NC4CCN(S(=O)(=O)C5CC5)CC4)n3)cc2)CC1
[1]
  IC50: 1100 nM
